Biological target: T1, GlyT1 (Homo sapiens, UniProt P48067)
T1 construct: expressed in transfected cells
T1 sequence (P48067 1-706): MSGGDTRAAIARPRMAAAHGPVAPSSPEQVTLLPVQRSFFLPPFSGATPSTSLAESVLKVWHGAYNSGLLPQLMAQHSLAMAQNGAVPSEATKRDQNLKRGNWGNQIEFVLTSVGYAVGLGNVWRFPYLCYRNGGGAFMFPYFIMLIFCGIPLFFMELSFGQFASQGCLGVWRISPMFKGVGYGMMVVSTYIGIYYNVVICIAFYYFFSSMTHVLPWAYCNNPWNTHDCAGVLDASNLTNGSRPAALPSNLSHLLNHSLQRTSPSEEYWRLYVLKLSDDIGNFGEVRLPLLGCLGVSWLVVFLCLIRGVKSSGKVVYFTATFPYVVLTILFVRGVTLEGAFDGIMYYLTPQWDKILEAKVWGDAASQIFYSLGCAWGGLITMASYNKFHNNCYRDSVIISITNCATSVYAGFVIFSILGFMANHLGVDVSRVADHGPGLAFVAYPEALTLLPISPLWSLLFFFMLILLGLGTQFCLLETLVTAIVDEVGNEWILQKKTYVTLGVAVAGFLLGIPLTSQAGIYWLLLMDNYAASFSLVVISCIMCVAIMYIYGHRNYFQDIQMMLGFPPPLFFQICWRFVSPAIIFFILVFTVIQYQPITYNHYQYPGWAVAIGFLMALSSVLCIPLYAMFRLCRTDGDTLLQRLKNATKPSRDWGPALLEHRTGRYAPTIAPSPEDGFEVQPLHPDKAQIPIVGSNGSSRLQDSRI
Test: Glycine Transporter 1 (GlyT1) uptake assay, scintillation proximity assay of [14C]-glycine uptake
Assay type: cell-based
Details: [14C]-glycine uptake; read-out: GlyT1 (pIC50) (converted)
Summary of the method: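 IC50 values were derived by four-parameter logistic fitting of counts. The 2× compound solutions were made by 1:100 dilution into HBSS of DMSO serial dilutions.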

| Structure (SMILES) | IC50 |
| --- | --- |
| COc1c(S(C)(=O)=O)ccc(O[C@@H](C)C(F)(F)F)c1C(=O)N1CC(c2cc(F)cc(F)c2F)C1 [Example 156, 1-(3-Methanesulfonyl-2-methoxy-6-{[(2S)-1,1,1-trifluoropropan-2-yl]oxy}benzoyl)-3-(2,3,5-trifluorophenyl)azetidine] | < 100 nM |
| COc1c(S(C)(=O)=O)ccc(O[C@H](C)C(F)(F)F)c1C(=O)N1CC(c2ccc(C3CCC(F)(F)CC3)cc2)C1 [Example 167, 3-[4-(4,4-Difluorocyclohexyl)phenyl]-1-(3-methanesulfonyl-2-methoxy-6-{[(2R)-1,1,1-trifluoropropan-2-yl]oxy}benzoyl)azetidine] | < 100 nM |
| COc1c(C#N)ccc(O[C@@H](C)C(F)(F)F)c1C(=O)N1CC(c2ccccc2C#N)C1 [Example 123, 3-{[3-(2-Cyanophenyl)azetidin-1-yl]carbonyl}-2-methoxy-4-{[(2S)-1,1,1-trifluoropropan-2-yl]oxy}benzonitrile] | < 100 nM |
| COc1c(C#N)ccc(OC(C)C(F)(F)F)c1C(=O)N1CC(Oc2ccc(F)c(F)c2)C1 (centres unmarked) [Example 67, 3-{[3-(3,4-Difluorophenoxy)azetidin-1-yl]carbonyl}-2-methoxy-4-[(1,1,1-trifluoropropan-2-yl)oxy]benzonitrile] | 1000 to 10000 nM |
| COc1c(S(C)(=O)=O)ccc(O[C@@H](C)C(F)(F)F)c1C(=O)N1CC(Oc2cccc(Cl)c2)C1 [Example 200, 3-(3-Chlorophenoxy)-1-(3-methanesulfonyl-2-methoxy-6-{[(2S)-1,1,1-trifluoropropan-2-yl]oxy}benzoyl)azetidine] | < 100 nM |
| COc1c(S(C)(=O)=O)ccc(O[C@@H](C)C(F)(F)F)c1C(=O)N1CC(c2cccc(C(F)(F)F)c2)C1 [Example 10, 1-(3-Methanesulfonyl-2-methoxy-6-{[(2S)-1,1,1-trifluoropropan-2-yl]oxy}benzoyl)-3-[3-(trifluoromethyl)phenyl]azetidine] | < 100 nM |
| COc1c(C#N)ccc(C2(F)CCOCC2)c1C(=O)N1CC(c2cc(F)cc(F)c2)C1 [Example 19, 3-{[3-(3,5-Difluorophenyl)azetidin-1-yl]carbonyl}-4-(4-fluorooxan-4-yl)-2-methoxybenzonitrile] | < 100 nM |
| COc1c(C#N)ccc(OC(C)C(F)(F)F)c1C(=O)N1CC(O)(c2ccc(C(F)(F)F)cc2)C1 (centres unmarked) [Example 64, 3-({3-Hydroxy-3-[4-(trifluoromethyl)phenyl]azetidin-1-yl}carbonyl)-2-methoxy-4-[(1,1,1-trifluoropropan-2-yl)oxy]benzonitrile] | 100 to 1000 nM |
| COc1c(C#N)ccc(OC(C)C(F)(F)F)c1C(=O)N1CC(c2ccc(C#N)cc2)C1 (centres unmarked) [Example 95, 3-{[3-(4-Cyanophenyl)azetidin-1-yl]carbonyl}-2-methoxy-4-[(1,1,1-trifluoropropan-2-yl)oxy]benzonitrile] | 100 to 1000 nM |
| CC(Oc1ccc(C#N)c(Cl)c1C(=O)N1CC(Oc2ccccc2)C1)C(F)(F)F (centres unmarked) [Example 76, 2-Chloro-3-[(3-phenoxyazetidin-1-yl)carbonyl]-4-[(1,1,1-trifluoropropan-2-yl)oxy]benzonitrile] | 1000 to 10000 nM |
| COc1c(S(C)(=O)=O)ccc(O[C@@H](C)C(F)(F)F)c1C(=O)N1CC(Oc2cccc(F)c2F)C1 [Example 206, 3-(2,3-Difluorophenoxy)-1-(3-methanesulfonyl-2-methoxy-6-{[(2S)-1,1,1-trifluoropropan-2-yl]oxy}benzoyl)azetidine] | < 100 nM |
| COc1c(S(C)(=O)=O)ccc(O[C@@H](C)C(F)(F)F)c1C(=O)N1CC(c2ccc(C(F)(F)F)cc2C)C1 [Example 40, 1-(3-Methanesulfonyl-2-methoxy-6-{[(2S)-1,1,1-trifluoropropan-2-yl]oxy}benzoyl)-3-[2-methyl-4-(trifluoromethyl)phenyl]azetidine] | 1000 to 10000 nM |
| Cc1cncc(C2CN(C(=O)c3c(OC(C)C(F)(F)F)ccc(C#N)c3Cl)C2)c1 (centres unmarked) [Example 110, 2-Chloro-3-{[3-(5-methylpyridin-3-yl)azetidin-1-yl]carbonyl}-4-[(1,1,1-trifluoropropan-2-yl)oxy]benzonitrile] | 100 to 1000 nM |
| COc1c(S(C)(=O)=O)ccc(O[C@@H](C)C(F)(F)F)c1C(=O)N1CC(c2cccc(F)c2F)C1 [Example 157, 3-(2,3-Difluorophenyl)-1-(3-methanesulfonyl-2-methoxy-6-{[(2S)-1,1,1-trifluoropropan-2-yl]oxy}benzoyl)azetidine] | < 100 nM |
| COc1c(C#N)ccc(C2CC(F)(F)C2)c1C(=O)N1CC(c2ncc(C(F)(F)F)cc2Cl)C1 [Example 152, 3-{3-[3-Chloro-5-(trifluoromethyl)pyridin-2-yl]azetidine-1-carbonyl}-4-(3,3-difluorocyclobutyl)-2-methoxybenzonitrile] | < 100 nM |
| COc1c(C#N)ccc(C2(F)CCC2)c1C(=O)N1CC(c2ccc(C#N)cc2Cl)C1 [Example 134, 3-{[3-(2-Chloro-4-cyanophenyl)azetidin-1-yl]carbonyl}-4-(1-fluorocyclobutyl)-2-methoxybenzonitrile] | < 100 nM |
| C#Cc1cc(C(F)(F)F)cnc1C1CN(C(=O)c2c(O[C@@H](C)C(F)(F)F)ccc(S(C)(=O)=O)c2OC)C1 [Example 191, 3-Ethynyl-2-[1-(3-methanesulfonyl-2-methoxy-6-{[(2S)-1,1,1-trifluoropropan-2-yl]oxy}benzoyl)azetidin-3-yl]-5-(trifluoromethyl)pyridine] | < 100 nM |
| COc1c(C#N)ccc(O[C@@H](C)C(F)(F)F)c1C(=O)N1CC(Oc2ccc(C(F)(F)F)cc2)C1 [Example 30, 2-Methoxy-3-({3-[4-(trifluoromethyl)phenoxy]azetidin-1-yl}carbonyl)-4-{[(2S)-1,1,1-trifluoropropan-2-yl]oxy}benzonitrile] | 100 to 1000 nM |
| COc1c(C#N)ccc(O[C@@H](C)C(F)(F)F)c1C(=O)N1CC(c2ccc(C#N)c(Cl)c2)C1 [Example 122, 3-{[3-(3-Chloro-4-cyanophenyl)azetidin-1-yl]carbonyl}-2-methoxy-4-{[(2S)-1,1,1-trifluoropropan-2-yl]oxy}benzonitrile] | < 100 nM |
| COc1c(C#N)ccc(O[C@H](C)C(F)(F)F)c1C(=O)N1CC(c2ccc(C(F)F)cn2)C1 [Example 137, 3-{3-[5-(Difluoromethyl)pyridin-2-yl]azetidine-1-carbonyl}-2-methoxy-4-{[(2R)-1,1,1-trifluoropropan-2-yl]oxy}benzonitrile] | < 100 nM |
| COc1c(C#N)ccc(C2CCCC2)c1C(=O)N1CC(c2ncc(C(F)(F)F)cc2F)C1 [Example 210, 4-Cyclopentyl-3-{3-[3-fluoro-5-(trifluoromethyl)pyridin-2-yl]azetidine-1-carbonyl}-2-methoxybenzonitrile] | < 100 nM |
| COc1c(C#N)ccc(O[C@H](C)C(F)(F)F)c1C(=O)N1CC(c2ncc(C(F)(F)F)cc2Cl)C1 [Example 136, 3-{3-[3-Chloro-5-(trifluoromethyl)pyridin-2-yl]azetidine-1-carbonyl}-2-methoxy-4-{[(2R)-1,1,1-trifluoropropan-2-yl]oxy}benzonitrile] | 100 to 1000 nM |
| COc1c(C#N)ccc(O[C@@H](C)C(F)(F)F)c1C(=O)N1CC(c2cc(F)cc(F)c2)C1 [Example 53, 3-[3-(3,5-Difluorophenyl)azetidine-1-carbonyl]-2-methoxy-4-{[(2S)-1,1,1-trifluoropropan-2-yl]oxy}benzonitrile] | 100 to 1000 nM |
| CC(Oc1ccc(C#N)c(Cl)c1C(=O)N1CC(c2ccc(F)cn2)C1)C(F)(F)F (centres unmarked) [Example 66, 2-Chloro-3-{[3-(5-fluoropyridin-2-yl)azetidin-1-yl]carbonyl}-4-[(1,1,1-trifluoropropan-2-yl)oxy]benzonitrile] | 100 to 1000 nM |
| COc1c(C#N)ccc(OC(C)C)c1C(=O)N1CC(c2ccc(C3CCOCC3)cn2)C1 [Example 166, 2-Methoxy-3-{3-[5-(oxan-4-yl)pyridin-2-yl]azetidine-1-carbonyl}-4-(propan-2-yloxy)benzonitrile] | 100 to 1000 nM |
| COc1c(C#N)ccc(C2(F)CCOCC2)c1C(=O)N1CC(Oc2ccc(Cl)cc2)C1 [Example 28, 3-{[3-(4-Chlorophenoxy)azetidin-1-yl]carbonyl}-4-(4-fluorooxan-4-yl)-2-methoxybenzonitrile] | 100 to 1000 nM |
| COc1c(C#N)ccc(OC(C)C(F)(F)F)c1C(=O)N1CC(c2ccccn2)C1 (centres unmarked) [Example 93, 2-Methoxy-3-{[3-(pyridin-2-yl)azetidin-1-yl]carbonyl}-4-[(1,1,1-trifluoropropan-2-yl)oxy]benzonitrile] | < 100 nM |
| CCS(=O)(=O)c1ccc(OC(C)C)c(C(=O)N2CC(Oc3cc(F)c(F)cc3F)C2)c1OC [Example 245, 1-[3-(Ethanesulfonyl)-2-methoxy-6-(propan-2-yloxy)benzoyl]-3-(2,4,5-trifluorophenoxy)azetidine] | < 100 nM |
| COc1c(C#N)ccc(O[C@@H](C)C(F)(F)F)c1C(=O)N1CC(c2ccc(C(F)(F)F)cc2)C1 [Example 178, 2-Methoxy-3-({3-[4-(trifluoromethyl)phenyl]azetidin-1-yl}carbonyl)-4-{[(2S)-1,1,1-trifluoropropan-2-yl]oxy}benzonitrile] | 100 to 1000 nM |

From US10040759B2, “Substituted azetidinyl compounds as GlyT1 inhibitors” (DART NEUROSCIENCE (CAYMAN) LTD., priority 2014, dated 2018)
